Test results from ChEMBL document CHEMBL1909046, “DrugMatrix in vitro pharmacology data”.

What was measured:
[1] = target: Prostaglandin G/H synthase 1 (Homo sapiens, UniProt P23219); assay: biochemical; type: tissue-based, Platelet; details: platelet;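 further: inhibition of COX-1 enzyme activity, with arachidonic acid supplied as substrate; in other assays of this panel Not Active means under 50% inhibition at 10 µM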
D(3) dopamine receptor = D(3) dopamine receptor (Homo sapiens, UniProt P35462); assay: DRUGMATRIX: Dopamine D3 radioligand binding (ligand: [3H] Spiperone); type: cell membranes, CHO, Membrane
[2] = target: T1, 5-hydroxytryptamine receptor 2C (Homo sapiens, UniProt P28335); assay: DRUGMATRIX: Serotonin (5-Hydroxytryptamine) 5-HT2C radioligand binding (ligand: [3H] Mesulergine); type: cell membranes, CHO-K1, Membrane; details: Not Active = under 50% inhibition at 10 µM
T1 sequence (P28335 whole entry): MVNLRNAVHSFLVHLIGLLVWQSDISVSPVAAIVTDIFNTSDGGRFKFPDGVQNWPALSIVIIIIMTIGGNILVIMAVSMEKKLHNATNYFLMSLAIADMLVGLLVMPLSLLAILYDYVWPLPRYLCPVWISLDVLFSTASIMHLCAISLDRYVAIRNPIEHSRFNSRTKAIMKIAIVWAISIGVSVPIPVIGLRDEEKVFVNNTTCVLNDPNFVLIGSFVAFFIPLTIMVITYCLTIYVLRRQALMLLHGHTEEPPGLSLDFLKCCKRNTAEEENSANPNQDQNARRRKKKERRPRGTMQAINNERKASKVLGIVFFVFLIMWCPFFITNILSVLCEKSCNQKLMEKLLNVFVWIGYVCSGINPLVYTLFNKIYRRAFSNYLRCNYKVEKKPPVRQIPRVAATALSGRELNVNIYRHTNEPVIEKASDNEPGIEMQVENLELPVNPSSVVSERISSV

Androgen receptor = target: T2, Androgen receptor (Rattus norvegicus, UniProt P15207); further: in other assays of this panel Not Active means under 50% inhibition at 10 µM
T2 sequence (P15207 whole entry): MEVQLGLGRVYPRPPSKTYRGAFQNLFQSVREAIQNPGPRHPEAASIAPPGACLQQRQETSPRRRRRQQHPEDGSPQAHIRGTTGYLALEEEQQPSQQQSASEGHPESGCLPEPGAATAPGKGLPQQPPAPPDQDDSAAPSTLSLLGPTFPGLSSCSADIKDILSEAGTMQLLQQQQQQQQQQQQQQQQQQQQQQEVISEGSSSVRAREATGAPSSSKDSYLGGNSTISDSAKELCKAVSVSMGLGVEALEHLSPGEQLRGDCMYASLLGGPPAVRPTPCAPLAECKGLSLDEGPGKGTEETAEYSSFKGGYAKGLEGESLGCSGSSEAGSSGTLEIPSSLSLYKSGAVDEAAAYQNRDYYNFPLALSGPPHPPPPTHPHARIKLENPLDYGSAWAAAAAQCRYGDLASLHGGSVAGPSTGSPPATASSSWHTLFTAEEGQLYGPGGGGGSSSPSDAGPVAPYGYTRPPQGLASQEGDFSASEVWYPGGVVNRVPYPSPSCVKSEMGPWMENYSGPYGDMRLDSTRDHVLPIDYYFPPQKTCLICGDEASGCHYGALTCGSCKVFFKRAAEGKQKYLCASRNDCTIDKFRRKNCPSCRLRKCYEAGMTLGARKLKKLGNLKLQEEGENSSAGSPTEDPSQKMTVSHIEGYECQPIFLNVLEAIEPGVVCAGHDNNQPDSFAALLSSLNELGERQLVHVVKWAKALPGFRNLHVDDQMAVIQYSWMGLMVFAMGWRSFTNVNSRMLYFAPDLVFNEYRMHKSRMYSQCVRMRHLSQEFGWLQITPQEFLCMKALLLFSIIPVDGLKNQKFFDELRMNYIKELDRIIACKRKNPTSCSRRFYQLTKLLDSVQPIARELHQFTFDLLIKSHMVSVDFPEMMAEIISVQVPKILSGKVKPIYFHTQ

[3] = DRUGMATRIX: Tumor Necrosis Factor (TNF), Non-Selective radioligand binding (ligand: [125I] TNF-alpha); type: cell membranes, Membrane; details: u-937; Not Active = under 50% inhibition at 10 µM
[4] = target: T3, Receptor-type tyrosine-protein phosphatase C (Homo sapiens, UniProt P08575); parameters: species or system Escherichia coli;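 further: inhibition of CD45 enzyme activity measured using DiFMUP as substrate; in other assays of this panel Not Active means under 50% inhibition at 10 µM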
T3 sequence (P08575 whole entry): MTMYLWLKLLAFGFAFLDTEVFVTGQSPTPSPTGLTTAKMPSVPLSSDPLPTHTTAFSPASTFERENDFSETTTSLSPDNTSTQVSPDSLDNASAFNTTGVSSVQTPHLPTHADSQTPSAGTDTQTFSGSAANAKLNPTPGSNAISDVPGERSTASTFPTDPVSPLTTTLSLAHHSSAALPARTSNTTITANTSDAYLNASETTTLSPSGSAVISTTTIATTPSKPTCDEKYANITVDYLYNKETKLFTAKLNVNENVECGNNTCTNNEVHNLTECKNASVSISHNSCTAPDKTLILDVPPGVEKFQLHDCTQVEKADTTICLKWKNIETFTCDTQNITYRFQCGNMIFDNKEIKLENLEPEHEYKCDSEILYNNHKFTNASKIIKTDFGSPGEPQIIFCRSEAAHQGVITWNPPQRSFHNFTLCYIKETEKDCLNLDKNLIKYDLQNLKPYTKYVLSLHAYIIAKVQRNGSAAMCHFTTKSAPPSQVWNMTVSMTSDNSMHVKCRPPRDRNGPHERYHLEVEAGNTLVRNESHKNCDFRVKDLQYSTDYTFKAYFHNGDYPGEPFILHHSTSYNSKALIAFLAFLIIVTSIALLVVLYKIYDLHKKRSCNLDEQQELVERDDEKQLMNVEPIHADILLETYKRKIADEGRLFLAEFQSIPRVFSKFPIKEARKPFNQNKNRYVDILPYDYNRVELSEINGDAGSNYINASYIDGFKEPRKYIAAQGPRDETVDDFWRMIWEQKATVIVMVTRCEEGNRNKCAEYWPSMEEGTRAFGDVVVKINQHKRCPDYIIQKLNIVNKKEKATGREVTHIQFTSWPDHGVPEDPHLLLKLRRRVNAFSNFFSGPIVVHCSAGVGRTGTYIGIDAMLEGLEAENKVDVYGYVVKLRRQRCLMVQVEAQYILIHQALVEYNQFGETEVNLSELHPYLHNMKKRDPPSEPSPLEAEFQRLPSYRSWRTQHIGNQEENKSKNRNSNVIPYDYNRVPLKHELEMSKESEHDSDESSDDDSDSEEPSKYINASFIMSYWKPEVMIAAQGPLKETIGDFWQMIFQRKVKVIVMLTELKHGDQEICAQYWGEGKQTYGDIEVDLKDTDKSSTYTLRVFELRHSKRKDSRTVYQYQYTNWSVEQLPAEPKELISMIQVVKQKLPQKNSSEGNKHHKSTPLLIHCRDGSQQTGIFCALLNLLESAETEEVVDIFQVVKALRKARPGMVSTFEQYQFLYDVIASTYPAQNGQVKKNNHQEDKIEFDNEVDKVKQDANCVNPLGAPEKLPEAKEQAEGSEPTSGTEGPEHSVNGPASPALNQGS

Chain of D(3) dopamine receptor (P35462 whole entry): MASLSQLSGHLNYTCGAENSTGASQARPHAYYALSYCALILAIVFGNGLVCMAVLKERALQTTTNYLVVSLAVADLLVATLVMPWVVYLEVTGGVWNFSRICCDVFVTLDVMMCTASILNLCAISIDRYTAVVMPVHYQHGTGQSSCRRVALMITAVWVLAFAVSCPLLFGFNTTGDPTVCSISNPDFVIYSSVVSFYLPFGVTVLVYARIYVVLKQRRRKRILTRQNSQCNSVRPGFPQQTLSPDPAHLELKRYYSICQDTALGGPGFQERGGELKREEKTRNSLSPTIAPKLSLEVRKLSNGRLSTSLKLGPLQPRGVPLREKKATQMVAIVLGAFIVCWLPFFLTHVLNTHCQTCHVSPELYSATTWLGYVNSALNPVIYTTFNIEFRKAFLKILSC
Chain of Prostaglandin G/H synthase 1 (P23219 whole entry): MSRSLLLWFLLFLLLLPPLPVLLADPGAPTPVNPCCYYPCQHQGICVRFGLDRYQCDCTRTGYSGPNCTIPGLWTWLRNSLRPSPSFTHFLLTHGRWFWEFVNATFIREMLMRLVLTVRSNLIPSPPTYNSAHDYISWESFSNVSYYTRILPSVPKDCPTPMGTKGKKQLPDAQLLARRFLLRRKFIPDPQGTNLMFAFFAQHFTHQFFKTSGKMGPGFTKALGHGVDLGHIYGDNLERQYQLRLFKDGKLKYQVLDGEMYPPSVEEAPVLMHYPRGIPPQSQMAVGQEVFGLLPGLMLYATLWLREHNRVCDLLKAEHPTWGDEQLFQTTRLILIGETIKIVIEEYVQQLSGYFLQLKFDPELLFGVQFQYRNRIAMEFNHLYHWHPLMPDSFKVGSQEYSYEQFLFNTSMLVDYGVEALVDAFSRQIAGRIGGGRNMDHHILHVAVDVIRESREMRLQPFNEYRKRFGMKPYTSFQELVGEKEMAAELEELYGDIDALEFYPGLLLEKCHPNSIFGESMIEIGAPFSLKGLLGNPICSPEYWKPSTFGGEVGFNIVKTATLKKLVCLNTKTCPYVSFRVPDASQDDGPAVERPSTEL

Compound	IC50 [1]	IC50 (D(3) dopamine receptor; cho)	IC50 ([2]; cho-k1)	IC50 (Androgen receptor)	IC50 [3]	Ki [3]	IC50 [4]	Ki [1]	Ki (D(3) dopamine receptor; cho)	Ki ([2]; cho-k1)	Ki (Androgen receptor)	Ki [4]	IC50 (D(3) dopamine receptor; read-out: IC50)	Ki (D(3) dopamine receptor; read-out: Ki)	IC50 ([2]; read-out: IC50)	Ki ([2]; read-out: Ki)
O=C(O)COC(=O)Cc1ccccc1Nc1c(Cl)cccc1Cl [ACECLOFENAC]	Not Active	Not Active	Not Active	Not Active	Not Active	Not Active	Not Active									
C=CCN1CC[C@]23c4c5ccc(O)c4O[C@H]2/C(=N/N=C2\CC[C@@]4(O)[C@H]6Cc7ccc(O)c8c7[C@@]4(CCN6CC=C)[C@H]2O8)CC[C@@]3(O)[C@H]1C5 [NALOXONAZINE]	Not Active	Not Active	Not Active	Not Active	Not Active	Not Active	Not Active									
O=c1[nH]c2ccccc2c2ccccc12	Not Active	Not Active	Not Active	Not Active	Not Active	Not Active	Not Active									
COC(=O)C[C@](O)(CCC(C)(C)O)C(=O)O[C@@H]1C(OC)=C[C@]23CCCN2CCc2cc4c(cc2[C@H]13)OCO4 [HARRINGTONINE]	Not Active	Not Active	Not Active	Not Active	Not Active	Not Active	Not Active									
C=C(Cl)Cl [1,1-DICHLOROETHENE]	Not Active	Not Active	Not Active	Not Active	Not Active	Not Active	Not Active									
POVIDONE	Not Active	Not Active	Not Active	Not Active	Not Active	Not Active	Not Active	Not Active	Not Active	Not Active	Not Active	Not Active				
CHROMIC CHLORIDE	Not Active	Not Active	Not Active	Not Active	Not Active	Not Active	Not Active	Not Active	Not Active	Not Active	Not Active	Not Active				
C[N+](C)(C)CCOP(=O)([O-])OC[C@H](O)CO	Not Active	Not Active	Not Active	Not Active	Not Active	Not Active	Not Active									
CARBOXYMETHYLCELLULOSE	Not Active	Not Active	Not Active	Not Active	Not Active	Not Active	Not Active	Not Active	Not Active	Not Active	Not Active	Not Active				
CN(CCOc1ccc(C[C@H](Nc2ccccc2C(=O)c2ccccc2)C(=O)O)cc1)c1ccccn1	Not Active	Not Active	Not Active	Not Active	Not Active	Not Active	Not Active									
COPPER(II) OXIDE	Not Active	Not Active	Not Active	Not Active	Not Active	Not Active	Not Active	Not Active	Not Active	Not Active	Not Active	Not Active				
COc1ccccc1OCCNCC(O)COc1cccc2[nH]c3ccccc3c12 (stereo not drawn) [CARVEDILOL]	Not Active			Not Active	Not Active	Not Active	Not Active						577 nM	196 nM	115 nM	60 nM
C[C@H](C(=O)O)c1ccc2oc(-c3ccc(F)cc3)nc2c1 [FLUNOXAPROFEN]	Not Active	Not Active	Not Active	Not Active	Not Active	Not Active	Not Active									
CCN1CCN(c2cc3c(cc2F)c(=O)c(C(=O)O)cn3C2CC2)CC1 [ENROFLOXACIN]	Not Active	Not Active	Not Active	Not Active	Not Active	Not Active	Not Active									
C[C@]12CC[C@@H](O)C[C@@H]1CC[C@@H]1[C@@H]2CC[C@]2(C)C(=O)CC[C@@H]12 [ANDROSTERONE]	Not Active	Not Active	Not Active	Not Active	Not Active	Not Active	Not Active									
CCO [ALCOHOL]	Not Active	Not Active	Not Active	Not Active	Not Active	Not Active	Not Active									
O=C(O)CNCP(=O)(O)O [GLYPHOSATE]	Not Active	Not Active	Not Active	Not Active	Not Active	Not Active	Not Active									
OC[C@H]1OC2C3[C@@H](CO)OC(O[C@H]4[C@H](O)[C@@H](O)[C@@H](O[C@H]5[C@H](O)[C@@H](O)[C@@H](O[C@H]6[C@H](O)[C@@H](O)[C@@H](O[C@H]7[C@H](O)[C@@H](O)[C@@H](O[C@H]8[C@H](O)[C@@H](O)[C@@H](O[C@H]9[C@H](O)[C@@H](O)C(OC1[C@H](O)[C@H]2O)O[C@@H]9CO)O[C@@H]8CO)O[C@@H]7CO)O[C@@H]6CO)O[C@@H]5CO)O[C@@H]4CO)[C@H](O)[C@H]3O	Not Active	Not Active	Not Active	Not Active	Not Active	Not Active	Not Active									
